For 23 molecules, IC50 results are on record in patent publication US20160193216A1 (Nimbus Iris, Inc., priority 2012, published 2016).

A value given as a limit tells only on which side of the number the result lay.

The target in the test is T1, IRAK4 (Homo sapiens, UniProt Q9NWZ3).
T1 sequence (Q9NWZ3 1-460): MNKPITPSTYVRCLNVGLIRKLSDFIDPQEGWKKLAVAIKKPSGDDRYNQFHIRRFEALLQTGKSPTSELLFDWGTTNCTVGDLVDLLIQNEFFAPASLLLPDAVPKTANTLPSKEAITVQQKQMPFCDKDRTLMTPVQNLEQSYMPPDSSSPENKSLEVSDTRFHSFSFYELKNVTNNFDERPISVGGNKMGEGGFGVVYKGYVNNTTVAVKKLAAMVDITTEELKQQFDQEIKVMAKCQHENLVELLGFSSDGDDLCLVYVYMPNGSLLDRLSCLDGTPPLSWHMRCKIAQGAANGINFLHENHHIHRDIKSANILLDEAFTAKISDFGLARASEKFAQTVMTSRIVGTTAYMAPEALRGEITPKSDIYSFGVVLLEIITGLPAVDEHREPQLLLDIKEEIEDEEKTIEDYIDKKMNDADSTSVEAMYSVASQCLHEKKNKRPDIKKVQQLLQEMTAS
Put plainly: IRAK-4 activity inhibition assay (Caliper). In kind it is biochemical. The note with it: 37 μM ATP, 3.5 nM IRAK4.
The term IC50 denotes the concentration at which inhibition is half-maximal. A lower IC50 goes with greater potency in that assay. `CC[C@H](C[C@H]1CCc2sc3ncnc(O[C@H]4CC[C@H](N(C)C)CC4)c3c21)OC` [Compound I-117, 4-[[(3R)-3-[(2R)-2-methoxybutyl]-7-thia-9,11-diazatricyclo[6.4.0.0[2,6]]dodeca-1(8),2(6),9,11-tetraen-12-yl]oxy]-N,N-dimethylcyclohexan-1-amine]: the IC50 is less than 5 µM. `CN[C@H]1CC[C@H](Oc2ncnc3sc4c(c23)[C@@H](CCC(N)=O)CCC4)CC1` [Compound I-162, 3-((R)-4-(((1r,4R)-4-(methylamino)cyclohexyl)oxy)-5,6,7,8-tetrahydrobenzo[4,5]thieno[2,3-d]pyrimidin-5-yl)propanamide] came in with an IC50 of less than 5 µM. In turn, `CN[C@]1(C)CC[C@@H](Oc2ncnc3sc4c(c23)[C@@H](CC(N)=O)CC4)CC1` [Compound I-156, 2-[(3R)-12-[[4-methyl-4-(methylamino)cyclohexyl]oxy]-7-thia-9,11-diazatricyclo[6.4.0.0[2,6]]dodeca-1(8),2(6),9,11-tetraen-3-yl]acetamide] showed an IC50 of less than 5 µM. The same measure for `CC(=O)N1CCc2sc3ncnc(O[C@H]4CC[C@H](N)CC4)c3c2C1` [Compound I-197, 1-[3-[(4-aminocyclohexyl)oxy]-8-thia-4,6, 12-triazatricyclo[7.4.0.0[2,7]]trideca-1(9),2,4,6-tetraen-12-yl]ethan-1-one]: 5 to 20 µM. On to `O=S(=O)(CCO)N1CCc2sc3ncnc(N[C@H]4CC[C@H](N5CCOCC5)CC4)c3c2C1` [Compound I-185, 2-(3-[[4-(morpholin-4-yl)cyclohexyl]amino]-8-thia-4,6,12-triazatricyclo[7.4.0.0[2,7]]trideca-1(9),2(7),3,5-tetraene-12-sulfonyl)ethan-1-ol], for which the IC50 was less than 5 µM. Consider `CN(C)[C@H]1CC[C@H](Oc2ncnc3sc4c(c23)[C@@H](C[C@H](O)C(F)(F)F)CC4)CC1` [Compound I-70, (S)-3-((R)-4-(((1r,4R)-4-(dimethylamino)cyclohexyl)oxy)-6,7-dihydro-5H-cyclopenta[4,5]thieno[2,3-d]pyrimidin-5-yl)-1,1,1-trifluoropropan-2-ol], for which the IC50 is less than 5 µM. The same measure for `C#CCOC[C@@H]1CCc2sc3ncnc(O[C@H]4CC[C@H](N(C)C)CC4)c3c21` [Compound I-48, N,N-dimethyl-4-[[(3R)-3-[(prop-2-yn-1-yloxy)methyl]-7-thia-9,11-diazatricyclo[6.4.0.0[2,6]]dodeca-1(8),2(6),9,11-tetraen-12-yl]oxy]cyclohexan-1-amine]: less than 5 µM. The same measure for `CN(C)[C@H]1CC[C@H](Oc2ncnc3sc4c(c23)[C@@H](CCC(N)=O)CCC4)CC1` [Compound I-163, 3-((R)-4-(((1r,4R)-4-(dimethylamino)cyclohexyl)oxy)-5,6,7,8-tetrahydrobenzo[4,5]thieno[2,3-d]pyrimidin-5-yl)propanamide]: less than 5 µM; for `CC1(C(N)=O)CCc2sc3ncnc(O[C@H]4CC[C@H](N5CCOCC5)CC4)c3c2C1` (some centres unmarked) [Compound I-237, 12-methyl-3-[[(1r,4r)-4-(morpholin-4-yl)cyclohexyl]oxy]-8-thia-4,6-diazatricyclo[7.4.0.0[2,7]]trideca-1(9),2,4,6-tetraene-12-carboxamide]: less than 5 µM. Molecule `CC[C@H](O)C[C@H]1CCc2sc3ncnc(O[C@H]4CC[C@H](N5CCOCC5)CC4)c3c21` [Compound I-64, (S)-1-((R)-4-(((1r,4R)-4-morpholinocyclohexyl)oxy)-6,7-dihydro-5H-cyclopenta[4,5]thieno[2,3-d]pyrimidin-5-yl)butan-2-ol] came in with a half-inhibitory concentration (IC50) of less than 5 µM. The same measure for `CC(=O)N1CCc2sc3ncnc(N[C@H]4CC[C@H](N5CCOCC5)CC4)c3c2C1` [Compound I-172, 1-(3-[[4-(morpholin-4-yl)cyclohexyl]amino]-8-thia-4,6,12-triazatricyclo[7.4.0.0-[2,7]]trideca-1(9),2(7),3,5-tetraen-12-yl)ethan-1-one]: 5 to 20 µM; for `C[C@]1(N)CC[C@H](Oc2ncnc3sc4c(c23)[C@@H](CC(N)=O)CC4)CC1` [Compound I-161, 2-[(3R)-12-[(4-amino-4-methylcyclohexyl)oxy]-7-thia-9,11-diazatricyclo[6.4.0.0[2,6]]dodeca-1(8),2(6),9,11-tetraen-3-yl]acetamide]: 5 to 20 µM.

In the case of `CN(C)[C@H]1CC[C@H](Oc2ncnc3sc4c(c23)C[C@H](CC(N)=O)CC4)CC1` [Compound I-113, 2-[(12R)-3-[[4-(dimethylamino)cyclohexyl]oxy]-8-thia-4,6-diazatricyclo[7.4.0.0[2,7]]trideca-1(9),2(7),3,5-tetraen-12-yl]acetamide], the IC50 was less than 5 µM.

In turn, `CN(C)[C@H]1CC[C@H](Oc2ncnc3sc4c(c23)[C@@H](CC(=O)NCC(N)=O)CC4)CC1` [Compound I-58, N-(2-amino-2-oxoethyl)-2-((R)-4-(((1r,4R)-4-(dimethylamino)cyclohexyl)oxy)-6,7-dihydro-5H-cyclopenta[4,5]thieno[2,3-d]pyrimidin-5-yl)acetamide] registered an IC50 of less than 5 µM. Regarding `CCNC(=O)CC1CCc2sc3ncnc(N[C@H]4CC[C@H](N(C)C)CC4)c3c21` (some centres unmarked) [Compound I-23, 2-(12-[[4-(dimethylamino)cyclohexyl]amino]-7-thia-9,11-diazatricyclo[6.4.0.0̂[2,6]]dodeca-1(8),2(6),9,11-tetraen-3-yl)-N-ethylacetamide], the IC50 lay in the range of 5 to 20 µM. In the case of `NC(=O)C[C@H]1CCc2sc3ncnc(O[C@H]4CC[C@H](N5CCN(Cc6ccccc6)CC5)CC4)c3c21` [Compound I-122, 2-[(3R)-12-[[4-(4-benzylpiperazin-1-yl)cyclohexyl]oxy]-7-thia-9,11-diazatricyclo[6.4.0.0[2,6]]dodeca-1(12),2(6),8,10-tetraen-3-yl]acetamide], the IC50 was less than 5 µM. Turning to `CN(CC(=O)N1CCCC1)[C@H]1CC[C@H](Nc2ncnc3sc4c(c23)[C@@H](CC(N)=O)CC4)CC1` [Compound I-123, 2-[(3R)-12-[(4-[methyl[2-oxo-2-(pyrrolidin-1-yl)ethyl]amino]cyclohexyl)amino]-7-thia-9,11-diazatricyclo[6.4.0.0[2,6]]dodeca-1(8),2(6),9,11-tetraen-3-yl]acetamide], the IC50 was less than 5 µM. With `CCNC(=O)CC1CCc2sc3ncnc(O[C@H]4CC[C@H](N(C)C)CC4)c3c21` (stereo in doubt) [Compound I-35, 2-[(3S)-12-[[4-(dimethylamino)cyclohexyl]oxy]-7-thia-9,11-diazatricyclo[6.4.0.0[2,6]]dodeca-1(12),2(6),8,10-tetraen-3-yl]-N-ethylacetamide], the half-inhibitory concentration (IC50) was less than 5 µM. The molecule `NC(=O)C[C@H]1CCc2sc3ncnc(O[C@H]4CC[C@H](N)CC4)c3c21` [Compound I-150, 2-[(3R)-12-[(4-aminocyclohexyl)oxy]-7-thia-9,11-diazatricyclo[6.4.0.0[2,6]]dodeca-1(12),2(6),8,10-tetraen-3-yl]acetamide] gave an IC50 of less than 5 µM.

For the molecule `OCC[C@H]1CCc2sc3ncnc(O[C@H]4CC[C@H](N5CCOCC5)CC4)c3c21` [Compound I-66, 2-[(3R)-12-[[4-(morpholin-4-yl)cyclohexyl]oxy]-7-thia-9,11-diazatricyclo[6.4.0.0[2,6]]dodeca-1(12),2(6),8,10-tetraen-3-yl]ethan-1-ol], the IC50 is less than 5 µM. `COC(=O)N1Cc2sc3ncnc(O[C@H]4CC[C@H](N5CCOCC5)CC4)c3c2C1` [Compound I-199, methyl 12-[[4-(morpholin-4-yl)cyclohexyl]oxy]-7-thia-4,9, 11-triazatricyclo[6.4.0.0[2,6]]dodeca-1(12),2(6),8, 10-tetraene-4-carboxylate] returned an IC50 of 20 to 50 µM.

Turning to `CN(C)[C@H]1CC[C@H](Oc2ncnc3sc4c(c23)C(CCO)CC4)CC1` (some centres unmarked) [Compound I-21, 2-(4-(((1r,4r)-4-(dimethylamino)cyclohexyl)oxy)-6,7-dihydro-5H-cyclopenta[4,5]thieno[2,3-d]pyrimidin-5-yl)ethanol], the IC50 was less than 5 µM. For the molecule `CC[C@@H](C[C@H]1CCc2sc3ncnc(O[C@H]4CC[C@H](N(C)C)CC4)c3c21)OC` [Compound I-119, (1R,4r)-4-(((R)-5-((S)-2-methoxybutyl)-6,7-dihydro-5H-cyclopenta[4,5]thieno[2,3-d]pyrimidin-4-yl)oxy)-N,N-dimethylcyclohexanamine], the concentration for half-maximal inhibition (IC50) is less than 5 µM.
